Legend:
Plasma Kallikrein = Plasma Kallikrein (Homo sapiens (Human), UniProt P03952); assay: Determination of related protease inhibition: Plasma Kallikrein (fluorogenic substrate at Km); type: biochemical; settings: 25° C., read-out: IC50 (human PKal)
Method: Determination of Related Protease Inhibition
In vitro inhibition of related proteases was determined using an ([…] assay based on standard literature methods (see e.g. Shori et al., Biochem. Pharmacol., 1992, 43, 1209; Bouckaert et al., European Journal of Medicinal Chemistry 110 (2016) 181). Human serine protease enzymes Plasma Kallikrein, KLK1, FXa, Plasmin, Thrombin and Trypsin were assayed for enzymatic activity using an appropriate fluorogenic substrate at Km concentration, FXIa at fixed substrate concentration of 100 μM, and various concentrations of the test compound. Protease activity was measured by monitoring the accumulation of liberated fluorescence from the substrate over […]. The linear rate of fluorescence increase per minute was expressed as percentage (%) activity. IC50 values were calculated as the concentration of inhibitor giving 50% inhibition of the uninhibited enzyme activity (100%).

Human Factor XIIa = Human Factor XIIa (Homo sapiens (Human), UniProt P00748); assay: Determination of FXIIa inhibition (fluorogenic substrate H-DPro-Phe-Arg-AFC, IC50 assay); type: biochemical; settings: substrate H-DPro-Phe-Arg-AFC at Km, 25° C.; class scale A-G
Method: Determination of FXIIa Inhibition
In vitro inhibition of Factor XIIa was determined using an IC50 assay based on standard literature methods (see e.g Baeriswyl et al., ACS Chem. Biol., 2015, 10 (8) 1861; Bouckaert et al., European Journal of Medicinal Chemistry 110 (2016) 181). Human Factor XIIa (Enzyme Research Laboratories) was incubated at 25° C. with the fluorogenic substrate H-DPro-Phe-Arg-AFC (Peptide Protein Science) and various concentrations of the test compound. Protease activity was measured by monitoring the accumulation of liberated fluorescence from the substrate over 5 min at 25° C. The linear rate of fluorescence increase per minute was expressed as percentage (%) activity. The Km for the cleavage of the substrate by FXIIa was determined by standard transformation of the Michaelis-Menten equation. The compound inhibitor assays were performed at substrate Km concentration. IC50 values were calculated as the concentration of inhibitor giving 50% inhibition (IC50) of the uninhibited enzyme activity (100%).

Chain of Human Factor XIIa (P00748 373-615): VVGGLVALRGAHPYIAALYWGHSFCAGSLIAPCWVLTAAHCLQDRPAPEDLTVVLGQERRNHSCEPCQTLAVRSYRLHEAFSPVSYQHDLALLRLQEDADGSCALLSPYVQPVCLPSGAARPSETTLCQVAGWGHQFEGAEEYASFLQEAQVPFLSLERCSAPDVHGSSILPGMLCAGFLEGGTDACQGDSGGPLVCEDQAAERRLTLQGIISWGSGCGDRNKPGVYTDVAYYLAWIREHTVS
Chain of Plasma Kallikrein (P03952 391-638): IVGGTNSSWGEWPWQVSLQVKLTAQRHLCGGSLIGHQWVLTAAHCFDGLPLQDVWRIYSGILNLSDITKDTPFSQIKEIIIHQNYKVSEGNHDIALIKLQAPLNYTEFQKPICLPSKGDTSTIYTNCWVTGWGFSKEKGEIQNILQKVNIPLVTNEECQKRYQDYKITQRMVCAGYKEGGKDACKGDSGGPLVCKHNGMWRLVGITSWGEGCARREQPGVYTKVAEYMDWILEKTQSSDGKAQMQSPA
Chain of Plasma Kallikrein (P03952 20-390 partner): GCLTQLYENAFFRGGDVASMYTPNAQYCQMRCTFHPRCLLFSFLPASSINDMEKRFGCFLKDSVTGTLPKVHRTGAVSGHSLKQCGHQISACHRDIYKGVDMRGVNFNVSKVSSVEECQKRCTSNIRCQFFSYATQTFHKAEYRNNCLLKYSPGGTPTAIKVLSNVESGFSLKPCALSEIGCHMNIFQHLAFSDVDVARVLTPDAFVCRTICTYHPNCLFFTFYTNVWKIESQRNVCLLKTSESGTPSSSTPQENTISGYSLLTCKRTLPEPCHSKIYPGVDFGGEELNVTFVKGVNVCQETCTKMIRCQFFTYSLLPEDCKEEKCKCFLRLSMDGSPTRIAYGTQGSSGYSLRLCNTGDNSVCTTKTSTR

SMILES	IC50 (Plasma Kallikrein)	IC50 (Human Factor XIIa)
CN1CCC(CNc2ccc(CNc3cc(C(N)=O)nc4[nH]ccc34)cn2)CC1 [Example 1264, 4-(((6-(((1-methylpiperidin-4-yl)methyl)amino)pyridin-3-yl)methyl)amino)-1H-pyrrolo[2,3-b]pyridine-6-carboxamide]	> 40 µM	–
COc1cccc2ccc(NCc3ccc(NCC4CCN(C)CC4)nc3)cc12 [Example 1178, 5-(((8-methoxynaphthalen-2-yl)amino)methyl)-N-((1-methylpiperidin-4-yl)methyl)pyridin-2-amine]	> 100 µM	–
CN1CCC(CNc2ccc(CNc3ccn4ccnc4c3)cn2)CC1 [Example 1222, N-((6-(((1-methylpiperidin-4-yl)methyl)amino)pyridin-3-yl)methyl)imidazo[1,2-a]pyridin-7-amine]	> 40 µM	–
CN1CCC(CNc2ccc(CNc3ccc(F)c4cnccc34)cn2)CC1 [Example 1214, 8-fluoro-N-((6-(((1-methylpiperidin-4-yl)methyl)amino)pyridin-3-yl)methyl)isoquinolin-5-amine]	> 100 µM	–
Nc1ncc(Cl)c2cc(NCc3ccc(N4CCn5nccc5C4)nc3)ccc12 [Example 1157, 4-chloro-N6-((6-(6,7-dihydropyrazolo[1,5-a]pyrazin-5(4H)-yl)pyridin-3-yl)methyl)isoquinoline-1,6-diamine]	> 40 µM	–
Cc1ncc(NCc2ccc(NCC3CCN(C)CC3)nc2)c2cc[nH]c12 [Example 1244, 7-methyl-N-((6-(((1-methylpiperidin-4-yl)methyl)amino)pyridin-3-yl)methyl)-1H-pyrrolo[2,3-c]pyridin-4-amine]	> 100 µM	–
CN1CCC(CNc2ccc(CNc3cc4c(=O)[nH]ccn4c3)cn2)CC1 [Example 1199, 7-(((6-(((1-methylpiperidin-4-yl)methyl)amino)pyridin-3-yl)methyl)amino)pyrrolo[1,2-a]pyrazin-1(2H)-one]	> 100 µM	–
CN1CCC(CNc2ccc(CNc3cc(C(=O)O)c4[nH]cc(Cl)c4c3)cn2)CC1 [Example 1204, 3-chloro-5-(((6-(((1-methylpiperidin-4-yl)methyl)amino)pyridin-3-yl)methyl)amino)-1H-indole-7-carboxylic acid]	> 100 µM	–
Cn1ccnc1CCCNc1ncc(CNc2ccc3c(N)ncc(Cl)c3c2)cn1 [Example 1038, 4-chloro-6-N-[(2-{[3-(1-methylimidazol-2-yl)propyl]amino}pyrimidin-5-yl)methyl]isoquinoline-1,6-diamine]	–	3 to 10 µM
Cc1cc(N2CCn3c(nnc3C(F)(F)F)C2C)ncc1CNc1ccnc2[nH]c(Cl)cc12 (single isomer, unassigned) [Example 1315, (R*)-2-Chloro-N-((4-methyl-6-(8-methyl-3-(trifluoromethyl)-5,6-dihydro-[1,2,4]triazolo[4,3-a]pyrazin-7(8H)-yl)pyridin-3-yl)methyl)-1H-pyrrolo[2,3-b]pyridin-4-amine]	–	10 to 40 µM
CN1CCC(COc2ccc(CNc3ccc4cncc(CO)c4c3)cn2)CC1 [Example 1026, (6-(((6-((1-Methylpiperidin-4-yl)methoxy)pyridin-3-yl)methyl)amino)isoquinolin-4-yl)methanol]	–	10 to 40 µM
CN1CCC(COc2ccc(CNc3ccc4c(N)ncnc4c3)cn2)CC1 [Example 1021, N7-((6-((1-methylpiperidin-4-yl)methoxy)pyridin-3-yl)methyl)quinazoline-4,7-diamine]	–	10 to 40 µM
Cc1cc(N2CCn3c(nnc3C(F)(F)F)C2)ncc1CNc1ccnc(N)c1 [Example 1323, N4-((4-methyl-6-(3-(trifluoromethyl)-5,6-dihydro-[1,2,4]triazolo[4,3-a]pyrazin-7(8H)-yl)pyridin-3-yl)methyl)pyridine-2,4-diamine]	–	10 to 40 µM
CN1C[C@@H]2C(COc3ccc(CNc4ccc5c(N)nccc5c4)cn3)[C@@H]2C1 (stereo partly drawn) [Example 1175, 6-N-[(6-{[(1R,5S,6S)-3-methyl-3-azabicyclo[3.1.0]hexan-6-yl]methoxy}pyridin-3-yl)methyl]isoquinoline-1,6-diamine]	–	0.3 to 1 µM
CN1CCC(CNc2ccc(CNc3cc(Cl)cc4[nH]ccc34)cn2)CC1 [Example 1241, 6-chloro-N-((6-(((1-methylpiperidin-4-yl)methyl)amino)pyridin-3-yl)methyl)-1H-indol-4-amine]	–	10 to 40 µM
Cc1cc(N2CCn3c(nnc3C(F)(F)F)C2)ncc1CNc1ccnc2c1CCN2 [Example 1339, N-((4-methyl-6-(3-(trifluoromethyl)-5,6-dihydro-[1,2,4]triazolo[4,3-a]pyrazin-7(8H)-yl)pyridin-3-yl)methyl)-2,3-dihydro-1H-pyrrolo[2,3-b]pyridin-4-amine]	–	10 to 40 µM

Results, then the compound that gave them:

IC50 (Plasma Kallikrein)	IC50 (Human Factor XIIa)	SMILES
–	0.3 to 1 µM	Nc1nccc2c(NS(=O)(=O)c3ccc(N4CCn5c(nnc5C(F)(F)F)C4)nc3)cccc12 [Example 1337, N-(1-aminoisoquinolin-5-yl)-6-(3-(trifluoromethyl)-5,6-dihydro-[1,2,4]triazolo[4,3-a]pyrazin-7(8H)-yl)pyridine-3-sulfonamide]
–	0.3 to 1 µM	Cc1cc(N2CCn3c(nnc3C(F)(F)F)C2)ncc1CNc1ccc2c(N)ncc(Cl)c2c1 [Example 1334, 4-chloro-N6-((4-methyl-6-(3-(trifluoromethyl)-5,6-dihydro-[1,2,4]triazolo[4,3-a]pyrazin-7(8H)-yl)pyridin-3-yl)methyl)isoquinoline-1,6-diamine]
–	0.1 to 0.3 µM	Nc1nccc2cc(NCc3ccc(OCC4CCn5ccnc5C4)nc3)ccc12 (single isomer, unassigned) [Example 1023, 6-N-({6-[(7R*)-5H,6H,7H,8H-imidazo[1,2-a]pyridin-7-ylmethoxy]pyridin-3-yl}methyl)isoquinoline-1,6-diamine]
–	1 to 3 µM	CN1CCC(OCc2ccc(CN(C)c3cccc4c(N)nccc34)c(Cl)c2)CC1 [Example 2203, 5-N-[(2-chloro-4-{[(1-methylpiperidin-4-yl)oxy]methyl}phenyl)methyl]-5-N-methylisoquinoline-1,5-diamine]
–	1 to 3 µM	Nc1nccc2cc(NCc3ccc(OCCCn4ccnc4)nc3)ccc12 [Example 1031, 6-N-({6-[3-(imidazol-1-yl)propoxy]pyridin-3-yl}methyl)isoquinoline-1,6-diamine]
–	0.3 to 1 µM	CN1CCC(COc2ccc(CCc3ccc4c(N)nccc4c3)cn2)CC1 [Example 1018, 6-(2-(6-((1-methylpiperidin-4-yl)methoxy)pyridin-3-yl)ethyl)isoquinolin-1-amine]
–	0.01 to 0.1 µM	Cc1cc(N2CCn3c(nnc3C(F)(F)F)C2C)ncc1CNc1ccnc2[nH]c(Cl)cc12 (single isomer, unassigned) [Example 1316, (S*)-2-Chloro-N-((4-methyl-6-(8-methyl-3-(trifluoromethyl)-5,6-dihydro-[1,2,4]triazolo[4,3-a]pyrazin-7(8H)-yl)pyridin-3-yl)methyl)-1H-pyrrolo[2,3-b]pyridin-4-amine]
–	0.3 to 1 µM	CN1CCC(COc2cc(CNc3cccc4c(N)nccc34)ccn2)CC1=O (stereo not drawn) [Example 4417, 4-{[(4-{[(1-aminoisoquinolin-5-yl)amino]methyl}pyridin-2-yl)oxy]methyl}-1-methylpiperidin-2-one]
–	0.01 to 0.1 µM	Cc1cc(N2CCn3c(nnc3C(F)(F)F)C2C)cnc1CNc1cccc2c(N)nccc12 (single isomer, unassigned) [Example 1345, (R*)-N5-((3-methyl-5-(8-methyl-3-(trifluoromethyl)-5,6-dihydro-[1,2,4]triazolo[4,3-a]pyrazin-7(8H)-yl)pyridin-2-yl)methyl)isoquinoline-1,5-diamine]
–	0.1 to 0.3 µM	CCC1c2nnc(C(F)(F)F)n2CCN1c1cc(C)c(CNc2cccc3c(N)nccc23)cn1 (stereo not drawn) [Example 1331, N5-((6-(8-ethyl-3-(trifluoromethyl)-5,6-dihydro-[1,2,4]triazolo[4,3-a]pyrazin-7(8H)-yl)-4-methylpyridin-3-yl)methyl)isoquinoline-1,5-diamine]
–	0.1 to 0.3 µM	COc1nc(OCC2CCN(C)CC2)ccc1CNc1ccc2c(N)nccc2c1 [Example 1027, N6-((2-methoxy-6-((1-methylpiperidin-4-yl)methoxy)pyridin-3-yl)methyl)isoquinoline-1,6-diamine]
–	1 to 3 µM	CN1CCC(COc2ccc(CNc3cnc4[nH]cc(Cl)c4c3)cn2)CC1 [Example 1020, 3-chloro-N-((6-((1-methylpiperidin-4-yl)methoxy)pyridin-3-yl)methyl)-1H-pyrrolo[2,3-b]pyridin-5-amine]
–	0.3 to 1 µM	CN1CCC(COc2ccc(CNc3ccc4c(N)nccc4c3)cn2)CC1=O (stereo not drawn) [Example 1015, 4-{[(5-{[(1-aminoisoquinolin-6-yl)amino]methyl}pyridin-2-yl)oxy]methyl}-1-methylpiperidin-2-one]
–	0.3 to 1 µM	CN1C[C@@H]2C(COc3cc(CNc4cccc5c(N)nccc45)ccn3)[C@@H]2C1 (stereo partly drawn) [Example 4418, 5-N-[(2-{[(1R,5S)-3-methyl-3-azabicyclo[3.1.0]hexan-6-yl]methoxy}pyridin-4-yl)methyl]isoquinoline-1,5-diamine]

Reference: US20240059691A1 (KALVISTA PHARMACEUTICALS LIMITED, priority 2020, published 2024)
